# Measurements published in patent publication US20250154266A1, “ACTIVIN SIGNALING ACTIVITY” (The Johns Hopkins University, priority 2022, published 2025).
# Key:
# [1] = tested on: Activin receptor-like kinase; conditions: Table I, cited from earlier work; for Function: reported function in words; for Target: target profile in words
# [2] = tested on: SMAD phosphorylation in CD4+ T cells; experiment: Western blot analysis of SMAD phosphorylation in CD4+ T cells; format: cell-based
# Method: Since Activins have been reported to promote SMAD signaling in non-T cells (14), it was tested whether Activins signaling in T cells could have a similar effect. SMAD activity was assessed by western blot analysis of SMAD phosphorylation.
# naive CD4+ T cells = experiment: Foxp3 induction / Treg generation from naive CD4+ T cells; format: cell-based; conditions: for Foxp3 induction (Foxp3+ cells): single agent, TGF-β at suboptimal concentration, Activin A in the absence of TGF-β
# Description: Since […] mediated events are important during the up-regulation of Foxp3 and the generation of Tregs from naive CD4+ T cell precursors, it was investigated whether Activin A can drive the process. Without TGF-β, as expected, Foxp3 induction was minimal.
# [3] = tested on: ALK1, ALK2, ALK3 and ALK6; conditions: in words; cited from earlier work
# [4] = tested on: ALK1, ALK2, BMPR1A, ALK4, TGFBR1, BMPR1B, and ALK7; conditions: in words; cited from earlier work
# [5] = single agent, Activin A 5 or 10 ng/ml, TGF-β 0.5 or 2 ng/ml
Molecule,Function [1],Target [1],further results
Cc1cccc(-c2[nH]c(C(C)(C)C)nc2-c2ccc3nccnc3c2)n1 [SB-525334],"SB-525334 has been demonstrated to block phosphorylation and Smad2/3 nuclear translocation, and inhibits renal fibrosis by reducing procollagen and PAI-1 expression.","ALK4, 5, 7",–
"TGF-β: cytokine, inducer of Foxp3 expression and SMAD signaling",–,–,"SMAD phosphorylation (phospho-SMAD) [2, 5]: induced SMAD phosphorylation; Foxp3 induction (Foxp3+ cells) (naive CD4+ T cells): modest up-regulation of Foxp3"
Fc1ccc(Cl)cc1-c1nc(Nc2ccncc2)c2nccnc2n1 [SD-208],SD-208 inhibits growth and invasiveness and enhances immunogenicity of murine and human glioma cells.,"ALK4, 5, 7",–
Cc1cccc(-c2[nH]c(C(C)(C)C)nc2-c2ccc3c(c2)OCO3)n1 [SB-505124],–,"ALK4, 5, 7",–
"Cc1cccc(-c2nn(C(=S)Nc3ccccc3)cc2-c2ccnc3ccccc23)n1 [Clone A-83-01, 3-(6-Methylpyridin-2-yl)-N-phenyl-4-(quinolin-4-yl)-1H-pyrazole-1-carbothioamide]","A-83-01 can inhibit the activities of ALK4, 5 and 7. For other ALK receptors such as ALK1, 2, 3 and 6, A-83-01 showed weak inhibition. A-83- 01 was proved to reduce EMT.","Selective inhibitor for ALK4, 5 and 7, and weak effect on ALK1, 2, 3 and 6","inhibition of ALK1, ALK2, ALK3 and ALK6 [3]: weak inhibitor"
c1ccc(-c2nc3c(c(-n4ccc5cnccc54)n2)CCC3)nc1 [AZ12601011],–,–,targets [4]: targets ALK4 and ALK7 as well as TGFBR1
"Cc1cccc(-c2nn3c(c2-c2ccnc4ccc(C(N)=O)cc24)CCC3)n1 (atropisomer, axis not shown) [LY-2157299]","LY-2157299 is now under phase II clinical studies of its anti- carcinoma activities against glioblastoma and hepatocellular carcinoma, and has also been reported that it inhibits the tumor growth in human lung anaplastic carcinoma cells and breast carcinoma cells.","ALK4, 5, 7",–
c1ccc(-c2cc(-c3c[nH]nc3-c3ccccn3)ccn2)cc1 [GW-6604],GW-6604 can prevent matrix deposition and promote hepatocyte regeneration as anti-cancer drug development.,"ALK4, 5, 7",–
"Activin A: dimeric member of the TGF-β Superfamily; two Activin βA subunits (protein, UniProt P08476 311-426, looked up, homodimer) Inhibin beta A chain: GLECDGKVNICCKKQFFVSFKDIGWNDWIIAPSGYHANYCEGECPSHIAGTSGSSLSFHSTVINHYRMRGHSPFANLKSCCVPTKLRPMSMLYYDDGQNIIKKDIQNMIVEECGCS",–,–,"SMAD phosphorylation (phospho-SMAD) ([2]; combined Activin A and TGF-β treatment): even further activation of the SMAD signaling pathway; SMAD phosphorylation (phospho-SMAD) [2, 5]: elevation of phospho-SMAD; Foxp3+ T cell induction (naive CD4+ T cells; combined treatment with Activin and TGF-β): synergistic promotion of Foxp3+ T cell induction; Foxp3 induction (Foxp3+ cells) (naive CD4+ T cells): comparable population of Foxp3+ cells"
